What was measured:
DR0401-IE mice = settings: mouse, in vivo
[1] = system: splenocytes of DR0401-IE mice; assay: 3H-thymidine proliferation recall assay of splenocytes from immunized mice; assay type: cell-based, mouse

cit-vim59-71: shorter citrullinated vimentin peptide, aa 59-71 (GVYATRSSAVRLR; citrullinated; UniProt P08670 59-71, looked up, fragment)
mice developing signs of ankle swelling or polyarthritis (DR0401-IE mice): none | proliferative recall response at 13 weeks ([1]; immunized DR0401-IE mice harvested at week 13 (supplemental fig. 1)): strong proliferative recall response | immunodominant region in in vitro restimulation ([1]; mice immunized with cit-vim59-78, challenge with short peptides at 5 μg/ml, n=13): immunologically dominant region
